Assay results taken from patent US12280026B2, “Use of repirinast in the prophylaxis or treatment of renal fibrosis or kidney disease” (ALGERNON PHARMACEUTICALS INC., priority 2018, dated 2025).
“Also recorded” adds a separate entry of the source. Marks after values point to notes of the source that are not given here.

Experiments:
Format in all cases: in vivo
[1] = tested on: C57BL/6 mice with UUO surgical ligation; assay: Example 2: UUO mice, renal fibrosis evaluation (Sirius Red histology score); conditions: for Level of kidney fibrosis / histology score compared to vehicle or other agents, in words: mg/kg PO QD: Telmisartan 3, Bemithyl 200, Repirinast 30, Telmisartan+Bemithyl 3+200, Telmisartan+Repirinast 3+30, Cenicriviroc 40, Bromantane 40; for Histology Score: Sirius Red, 0=normal, 1=light, 2=moderate, 3=severe, group mean; for Histology Score / Reduction of fibrosis (%) (versus vehicle): UUO, female C57BL/6 mice, PO QD days 1-14; for Reduction of fibrosis (%) (versus vehicle): from histology score
Experimental: (§1) In this example, healthy young female C57BL/6 mice were used for the study. At the commencement of the study, mice were between 9-12 weeks of age, weighing 23-25 g. All the mice were obtained from Charles River Laboratories.
(§2) The mice were maintained in a controlled environment with a temp 70-72° F., humidity 30-70%, with a photo cycle of 12 hours of light and 12 hours of dark. They were provided with Harlan Teklad 2018 standard maintenance mouse chow diet and drinking water ad libitium.
(§3) After five days of acclimatization, the mice were grouped according to their body weight. There were ten groups of ten mice each. Nine groups of ten mice each underwent UUO as described above and the other group of ten mice underwent a sham procedure to serve as a no-surgery control.
(§4) Following surgery, the mice were divided into 10 individual study groups of 10 mice each and, following post-surgical recovery, administered a once-daily oral treatment for 14 days. The mice in 8 of the 10 study groups had all received the UUO surgical ligation and were treated individually with a distinct pharmacologic compound as set out in Table 6. The mice in 2 of the 10 study groups were treated individually with a pharmaceutically acceptable vehicle with no active ingredient. The pharmaceutically acceptable vehicle in all groups was 0.5% carboxymethyl cellulose (CMC). All mice were sacrificed with CO2 on post-surgical day 15.
(§5) The dose selected for the animal studies was determined by taking the maximum known human daily dose, dividing by the average weight of an adult (˜60-70 kg) to get a human mg/kg dose. That number was multiplied by 12 to convert to a mouse dose based on conventional dosing tables. See Nair and Jacob, J Basic Clin Pharm March 2016-May 2016, 7(2):27-31.
Histopathology: Formalin-fixed kidney cross-section samples were subjected histopathological scoring with Sirius Red staining, and imaged at a magnification of ×20, using standard techniques. All three sections were stained and evaluated. The analysis was performed by a board-certified veterinarian pathologist. The presence of interstitial damage and severity score was assessed according to the following criteria: 0=normal; 1=light; 2=moderate; 3=severe.
(§6) The data are presented as the mean obtained from Microsoft Excel or GraphPad Prism version 5.00 for Windows (GraphPad Software, San Diego California USA). Data were analyzed using two-way ANOVA using Bonferroni and Tamhane post-tests. Differences between groups were considered significant at p<0.05.
Renal Fibrosis Evaluation: Renal fibrosis and interstitial damage was evaluated by histochemical staining of renal cross-sections with Sirius Red as previously described. The Histology Score of each study group consisted of the histology score average of all mice in each study group.

[2] = tested on: C57BL/6 mice with UUO surgical ligation; assay: Example 1: UUO mice, renal fibrosis evaluation (Sirius Red histology score); conditions: Bemithyl 200, Emoxypine 160, Suplatast Tosylate 60, Udenafil 40, Telmisartan 5 mg/kg PO QD
Experimental: Male 9-12 week old C57BL/6 mice of 23-25 grams body weight were used. All mice were acclimated for a minimum of 5 days prior to the start of the study and housed individually in microisolators throughout the study in a 12:12 light-dark cycle on a standard maintenance mouse chow diet (Harlan Teklad 2018) with food and water given ad libitum. Prior to surgery, all mice were weighed for baseline body weight.
The UUO surgical intervention was performed according to previously described methods known in the art (Le Meur Y et al., Macrophage accumulation at a site of renal inflammation is dependent on the M-CSF/c-fms pathway, J Leukocyte Biol., 72:530-537; 2002).
All mice were first anesthetized by intraperitoneal injection with a rodent cocktail (ketamine 10 mg/mL and Xyaline 1 mg/mL) in normal saline (10 μL/g body weight). Pedal reflex and movement of the vibrissae were used to determine the state of unconsciousness. A state of unconsciousness was confirmed after a period of about 5 minutes in all animals. All mice were then shaved on the left side of the abdomen. The shaved area was first swabbed with iodine and then swabbed with alcohol. A vertical incision was made through the skin with a #22 scalpel and the skin was then retracted. A further incision of about 2.5 cm was then made through the peritoneum avoiding any major blood vessels. The peritoneum was then retracted and the left kidney was exposed.
The left kidney was then brought to the surface by hooking the ureter directly beneath the kidney with sterile forceps and gently manipulating the kidney upward. The ureter was ligated at two points directly below the kidney with 5-0 surgical silk with excess suture cut away and discarded post-ligation. The kidney was then gently placed back to its correct anatomical position and the abdomen was lavaged with 1 mL sterile saline to replenish fluid loss. The peritoneum and then skin were sutured with 5-0 Mersilene, and the incision site was gently wiped with iodine. All mice were then placed individually in clean cages that were set on top of a thermal blanket until recovery at about 30-60 minutes later. In some examples, sham surgery was performed as a control by following all steps of the UUO surgical intervention procedure except ligation.
Following surgery, the mice were divided into 14 individual study groups of 8 mice each and, following post-surgical recovery, administered a once-daily oral treatment for 14 days. The mice in 12 of the 14 study groups (hereafter known as “treatment groups”) had all received the UUO surgical ligation and were treated individually with a distinct pharmacologic compound as set out in Table 1. The mice in 2 of the 14 study groups were treated individually with a pharmaceutically acceptable vehicle with no active ingredient. The pharmaceutically acceptable vehicle in all groups was 0.5% carboxymethyl cellulose (CMC). All mice were sacrificed with CO2 on post-surgical day 15.
The dose selected for the animal studies was determined by taking the maximum known human daily dose, dividing by the average weight of an adult (˜60-70 kg) to get a human mg/kg dose. […]
Histopathology: Formalin-fixed kidney cross-section samples were subjected histopathological scoring with Sirius Red staining, and imaged at a magnification of ×20, using standard techniques. All three sections were stained and evaluated. […] The presence of interstitial damage and severity score was assessed according to the following criteria: 0=normal, 1=light, 2=moderate, 3=severe. […]

[3] = tested on: C57BL/6 mice with UUO surgical ligation; assay: Example 2: UUO mice, renal function evaluation (plasma BUN, creatinine); conditions: for Level of BUN compared to vehicle or other agents, in words: mg/kg PO QD: Telmisartan 3, Bemithyl 200, Repirinast 30, Telmisartan+Bemithyl 3+200, Telmisartan+Repirinast 3+30, Cenicriviroc 40, Bromantane 40; for BUN / Creatinine: plasma at sacrifice day 15, group mean, UUO, female C57BL/6 mice, PO QD days 1-14
Experimental: as §1, §2, §3, §4, §5
Serum collection: A blood sample was then collected from all mice and plasma analyzed for urea nitrogen and creatinine. Plasma was stored at −80° C. for possible future analysis.
as §6
Renal Function Evaluation: Renal function and disease progression was evaluated by BUN (blood urea nitrogen) as previously described. The BUN of each study group consisted of the BUN average of all mice in each study group.

[4] = mg/kg: Telmisartan 3, Bemithyl 200, Repirinast 30, Telmisartan+Bemithyl 3+200, Telmisartan+Repirinast 3+30, Cenicriviroc 40, Bromantane 40
[5] = * significant vs vehicle Bonferroni, # Tamhane (p<0.05), mg/kg: Telmisartan 3, Bemithyl 200, Repirinast 30, Telmisartan+Bemithyl 3+200, Telmisartan+Repirinast 3+30, Cenicriviroc 40, Bromantane 40
[6] = Example 2, Repirinast 90 mg/kg PO QD

Compound | Level of kidney fibrosis / histology score compared to vehicle or other agents, in words ([1]; Example 2) | Histology Score [1, 4] | Reduction of fibrosis (%) (versus vehicle) [1, 4] | Kidney fibrosis / Histology Score, significance and comparison in words [2] | Level of BUN compared to vehicle or other agents, in words ([3]; Example 2) | BUN [3, 5] | Creatinine [3, 4] | Level of kidney fibrosis compared to vehicle, in words [1, 6] | Histology Score ([1]; Repirinast 90 mg/kg) | Reduction of fibrosis (%) (versus vehicle) ([1]; Repirinast 90 mg/kg) | Level of BUN compared to vehicle, in words [3, 6] | BUN ([3]; Repirinast 90 mg/kg) | Creatinine ([3]; Repirinast 90 mg/kg)
CCSc1nc2ccccc2[nH]1 [Bemithyl, 2-Ethylsulfanyl-1H-benzoimidazole] | significantly reduce the level of kidney fibrosis compared to vehicle; also recorded: significant improvement in kidney fibrosis | 1.15** | 52% | decreased in comparison to the positive control treatment group; also recorded: significant reductions in kidney fibrosis; also recorded: significant improvement in kidney fibrosis | significant reductions in the level of BUN compared to vehicle; also recorded: reduction in BUN compared to vehicle | 19.4* mg/dL | 0.20 mg/dL |  |  |  |  |  | 
Brc1ccc(NC2C3CC4CC(C3)CC2C4)cc1 (centres unmarked) [Bromantane, N-(4-Bromophenyl)adamantan-2-amine] | significantly reduce the level of kidney fibrosis compared to vehicle; also recorded: greatest numerical reduction in the histology score; also recorded: superior to both Telmisartan; also recorded: significant improvement in kidney fibrosis; also recorded: highest reductions in both fibrosis and BUN levels | 1.02*# | 58% |  | significant reductions in the level of BUN compared to vehicle; also recorded: most effective compound tested; also recorded: superior to Telmisartan; also recorded: reduction in BUN compared to vehicle; also recorded: highest reductions in both fibrosis and BUN levels | 17.3** mg/dL | 0.20 mg/dL |  |  |  |  |  | 
Cc1ccc2c([nH]c(=O)c3c(=O)cc(C(=O)OCCC(C)C)oc32)c1C [Repirinast, 3-methylbutyl 7,8-dimethyl-4,5-dioxo-5,6-dihydro-4H-pyrano[3,2-c]quinoline-2-carboxylate] | statistically insignificant improvements | 1.90 | 21% |  | significant reductions in the level of BUN compared to vehicle | 18.5*# mg/dL | 0.20 mg/dL | significantly reduce the level of kidney fibrosis compared to vehicle; also recorded: significant improvement in kidney fibrosis | 1.19*# | 51% | significant reductions in the level of BUN compared to vehicle; also recorded: reduction in BUN compared to vehicle | 17.6*# mg/dL | 0.20 mg/dL
CCCc1nc2c(C)cc(-c3nc4ccccc4n3C)cc2n1Cc1ccc(-c2ccccc2C(=O)O)cc1 [Telmisartan, 2-(4-{[4-Methyl-6-(1-methyl-1H-1,3-benzodiazol-2-yl)-2-propyl-1H-1,3-benzodiazol-1-yl]methyl}phenyl)benzoic acid] | statistically insignificant improvements; also recorded: did not show significant reductions | 1.62*# | 33% | significant reduction; also recorded: reduction in BUN levels and fibrosis | did not reduce levels of BUN; also recorded: did not show significant reductions | 23.5 mg/dL | 0.20 mg/dL |  |  |  |  |  | 
